From US9090599B2, “Heteroarylmethyl amides” (Hoffman-La Roche Inc., priority 2010, dated 2015)
pEC50: −log10 of the molar value. Like-named read-outs stand apart in the source and are kept apart here.

How the values were obtained:
ABCA1 protein = assay: Detection of upregulation of ABCA1 protein in THP-1 macrophage cells (ApoA-I binding, high content imaging); format: cell-based; details: 24 hrs with compound, AlexaFluor 647 ApoA-I binding, read-out: ABCA1 protein increasing efficacy EC50
Protocol: The ability of compounds of the invention to increase the level of ABCA1 protein is determined in replicate cultures of THP-1 macrophage cells in 96-well microplates. Cells are plated at an initial density of 100,000 cells/well in 100 μl medium and differentiated to adherent macrophages with the addition of PMA (100 nM) for 68 hrs in 10% fetal bovine serum, 3 μl/L of b-mercaptoethanol, RPMI-1640 medium. Then, cells are incubated with RPMI-1640 medium containing 1% FCS, 25 μg/ml acetylated LDL, for 24 hours at 37°. Following incubation with acetylated LDL, cells are washed twice with 50 μl PBS and incubated with 100 μl of RPMI-1640 medium containing the compound of interest solubilized in DMSO for an additional 24 hrs. The final DMSO concentration in presence of cells is maintained at 0.5%. ApoA-I binding assay using High Content Image Analysis is initiated by replacing with fresh medium, RPMI without Phenol Red, 0.2% BSA containing AlexaFluor®647 labeled ApoA-I for 2 h/37° C./5% CO2. Then, cells are fixed with 4% Formaldehyde in PBS (15 min, RT). Following Nuclei are stained with Hoechst solution (3 μM PBS) and Cytoplasm with Cell Mask Blue (2 μg/ml PBS), 15 min, RT. Finally the stained cells are fixed with a second round of formaldehyde treatment. Fixed stained cells are washed and kept in PBS at 4° C. and can be read immediately until one month after preparation.
The Alexa Fluor 647-labeled Apolipoprotein A-I (20 nM) was prepared as follows: Human recombinant Apolipoprotein A-I (ApoA-I) was exchanged to a buffer of 0.02 M NaHCO3 at pH 8.2 on an NAP desalting column (GE Healthcare) and brought to a concentration to 40 μM (1.13 mg/ml) by adjustment with the same buffer. The ApoA-I was fluorescently labeled by incubation with Alexa Fluor carboxylic acid succimidyl ester. (Alexa Fluor 647, Invitrogen A-20006) at a 2:1 molar ratio (Alexa to ApoA-I) for 1 h under shaking at RT. The remaining unconjugated label was removed by buffer exchange to 0.02M NaHCO3 at pH 8.2.
Imaging and data collection were performed on an OPERA confocal microplate imaging reader using a 20× water immersion objective and UV360 or 405 laser to identify the cell nuclei and a 635 laser to identify the fluorescent ApoA-I. Eight fields of view are captured per well. Image capture and analysis was performed with the Acapella software. Background fluorescence detected in control wells without ApoA-I was subtracted.
Using XLfit3 program (ID Business Solutions Ltd. UK), the model 205 for Dose Response One Site is used to calculate the EC50 values. […] Preferably, the compounds of the present invention have EC50 values in a range of 0.1 μM to 3 μM.

human CB1 receptor = target: T1, human CB1 receptor (Homo sapiens, UniProt P21554); assay: CB1 receptor affinity, [3H]-CP-55,940 displacement, HEK cell membranes; format: binding; details: read-out: CB1 receptor affinity [% inhibition @ 10 μM]
T1 construct: expressed in transfected cells; host or cells: human embryonic kidney (HEK) cells, Semliki Forest Virus system, membrane preparations
T1 sequence (P21554 whole entry): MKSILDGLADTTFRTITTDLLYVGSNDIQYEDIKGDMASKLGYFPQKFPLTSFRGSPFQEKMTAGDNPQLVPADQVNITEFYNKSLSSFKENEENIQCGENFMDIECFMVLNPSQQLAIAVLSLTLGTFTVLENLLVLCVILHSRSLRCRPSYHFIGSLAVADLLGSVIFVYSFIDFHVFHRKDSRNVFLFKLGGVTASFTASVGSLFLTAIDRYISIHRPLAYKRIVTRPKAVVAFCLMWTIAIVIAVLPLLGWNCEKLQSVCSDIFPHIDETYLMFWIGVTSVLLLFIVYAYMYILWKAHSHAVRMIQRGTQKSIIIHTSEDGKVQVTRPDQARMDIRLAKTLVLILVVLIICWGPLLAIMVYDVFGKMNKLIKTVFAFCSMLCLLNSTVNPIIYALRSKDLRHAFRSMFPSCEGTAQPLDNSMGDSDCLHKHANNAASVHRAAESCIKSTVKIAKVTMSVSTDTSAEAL
How it was run: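 Membranes from HEK cells transiently expressing human CB1 (Semliki Forest Virus system) incubated with [3H]-CP-55,940 with or without test compound. Bound and free ligand separated by glass-fibre filtration and bound radioactivity counted by scintillation. Compounds tested at 10 μM, values reported as % inhibition of radioligand binding.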

human CB2 receptor = target: T2, human CB2 receptor (Homo sapiens, UniProt P34972); assay: CB2 receptor affinity, [3H]-CP-55,940 displacement, HEK cell membranes; format: binding; details: 10 μM compound, radioligand [3H]-CP-55,940
T2 construct: expressed in transfected cells; host or cells: human embryonic kidney (HEK) cells, Semliki Forest Virus system, membrane preparations
T2 sequence (P34972 whole entry): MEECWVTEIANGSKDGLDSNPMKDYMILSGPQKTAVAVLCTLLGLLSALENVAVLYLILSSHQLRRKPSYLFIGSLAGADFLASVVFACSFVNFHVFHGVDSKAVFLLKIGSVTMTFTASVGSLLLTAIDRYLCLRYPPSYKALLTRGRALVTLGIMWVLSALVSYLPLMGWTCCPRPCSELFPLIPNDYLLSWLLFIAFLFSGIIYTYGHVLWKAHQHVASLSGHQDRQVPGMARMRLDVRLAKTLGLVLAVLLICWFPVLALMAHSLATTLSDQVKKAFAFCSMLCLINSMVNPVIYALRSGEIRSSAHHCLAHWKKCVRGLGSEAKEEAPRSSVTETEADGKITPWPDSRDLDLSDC
How it was run: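 Membranes from HEK cells transiently expressing human CB2 (Semliki Forest Virus) incubated with [3H]-CP-55,940 ± compound at 10 μM. Bound ligand separated by glass-fibre filtration and counted by scintillation; reported as % inhibition at 10 μM.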

[1] = 10 μM compound, radioligand [3H]-CP-55,940

Row | SMILES | pEC50 (ABCA1 protein) | inhibition at 10 µM (human CB1 receptor; [1]) | inhibition at 10 µM (human CB2 receptor) | inhibition at 10 µM (human CB1 receptor)
1 | COc1cc(CNC(=O)c2ncc(OCC(F)(F)F)c(-c3ccc(Cl)c(Cl)c3)n2)on1 [Example 25, 4-(3,4-dichlorophenyl)-N-((3-methoxyisoxazol-5-yl)methyl)-5-(2,2,2-trifluoroethoxy)pyrimidine-2-carboxamide] | 5.83 | 11% | 17% | 
2 | CC(C)c1cc(CNC(=O)c2cc(-c3ccc(Cl)cc3)c(OCC(F)(F)F)cn2)no1 [Example 27, 4-(4-chlorophenyl)-N-((5-isopropylisoxazol-3-yl)methyl)-5-(2,2,2-trifluoroethoxy)picolinamide] | 6.01 | 40% | 24% | 
3 | O=C(NCc1cc(C2CC2)on1)c1cc(-c2ccc(Cl)cc2)c(OCC(F)(F)F)cn1 [Example 28, 4-(4-chlorophenyl)-N-((5-cyclopropylisoxazol-3-yl)methyl)-5-(2,2,2-trifluoroethoxy)picolinamide] | 6.06 | 42% | 29% | 
4 | COc1cc(CNC(=O)c2cnc(O[C@@H](C)C(F)(F)F)c(-c3ccc(Cl)cc3)n2)on1 [Example 29, (S)-6-(4-chlorophenyl)-N-((3-methoxyisoxazol-5-yl)methyl)-5-(1,1,1-trifluoropropan-2-yloxy)pyrazine-2-carboxamide] | 5.73 | 27% | 17% | 
5 | CC(C)c1cc(CNC(=O)c2cnc(OCC(F)(F)F)c(-c3ccc(Cl)cc3)c2)no1 [Example 31, 5-(4-chlorophenyl)-N-((5-isopropylisoxazol-3-yl)methyl)-6-(2,2,2-trifluoroethoxy)nicotinamide] | 6.28 |  | 11% | 47%
6 | COc1cc(CNC(=O)c2cnc(O[C@@H](C)C(F)(F)F)c(-c3ccc(Cl)cc3)c2)on1 [Example 34, (S)-5-(4-chlorophenyl)-N-((3-methoxyisoxazol-5-yl)methyl)-6-(1,1,1-trifluoropropan-2-yloxy)nicotinamide] | 6.11 | 33% | 14% | 
7 | C[C@H](Oc1ncc(C(=O)NCc2nc(C(F)(F)F)no2)cc1-c1ccc(Cl)cc1)C(F)(F)F [Example 38, (S)-5-(4-chlorophenyl)-N-((3-(trifluoromethyl)-1,2,4-oxadiazol-5-yl)methyl)-6-(1,1,1-trifluoropropan-2-yloxy)nicotinamide] | 6.02 | 32% | -2% | 
8 | CC(C)c1cc(CNC(=O)c2cc(-c3ccc(Cl)cc3)c(OCC(F)(F)F)nn2)no1 [Example 42, 5-(4-chloro-phenyl)-6-(2,2,2-trifluoro-ethoxy)-pyridazine-3-carboxylic acid (5-isopropyl-isoxazol-3-ylmethyl)-amide] | 6.10 | 34% | 13% | 
9 | CC(C)c1cc(CNC(=O)c2ncc(OCC(F)(F)F)c(-c3ccc(Cl)cc3)n2)on1 [Example 44, 4-(4-chloro-phenyl)-5-(2,2,2-trifluoro-ethoxy)-pyrimidine-2-carboxylic acid (3-isopropyl-isoxazol-5-ylmethyl)-amide] | 5.99 | 29% | 8% | 
10 | O=C(NCc1nc(C(F)(F)F)no1)c1cc(-c2ccc(Cl)cc2)c(OCC(F)(F)F)nn1 [Example 46, 5-(4-chloro-phenyl)-6-(2,2,2-trifluoro-ethoxy)-pyridazine-3-carboxylic acid (3-trifluoromethyl-[1,2,4]oxadiazol-5-ylmethyl)-amide] | 6.11 | 30% | 0% | 
11 | O=C(NCc1nc(C2CC2)no1)c1cc(-c2ccc(Cl)cc2)c(OCC(F)(F)F)nn1 [Example 48, 5-(4-chloro-phenyl)-6-(2,2,2-trifluoro-ethoxy)-pyridazine-3-carboxylic acid (3-cyclopropyl-[1,2,4]oxadiazol-5-ylmethyl)-amide] | 6.14 | 35% | 19% | 
12 | O=C(NCc1cc(C(F)(F)F)no1)c1cc(-c2ccc(Cl)cc2)c(OCC(F)(F)F)nn1 [Example 60, 5-(4-chloro-phenyl)-6-(2,2,2-trifluoro-ethoxy)-pyridazine-3-carboxylic acid (3-trifluoromethyl-isoxazol-5-ylmethyl)-amide] | 6.12 | 30% | -3% | 
13 | O=C(NCc1cc(C(F)(F)F)no1)c1ncc(OCC(F)(F)F)c(-c2ccc(Cl)cc2)n1 [Example 61, 4-(4-chloro-phenyl)-5-(2,2,2-trifluoro-ethoxy)-pyrimidine-2-carboxylic acid (3-trifluoromethyl-isoxazol-5-ylmethyl)-amide] | 6.09 | 32% | 17% | 
14 | CC(C)c1cc(CNC(=O)c2ccc(OCC(F)(F)F)c(-c3ccc(Cl)cc3)n2)on1 [Example 64, 6-(4-chloro-phenyl)-5-(2,2,2-trifluoro-ethoxy)-pyridine-2-carboxylic acid (3-isopropyl-isoxazol-5-ylmethyl)-amide] | 6.07 | 33% | 7% | 
15 | O=C(NCc1cc(C(F)(F)F)on1)c1cc(-c2ccc(Cl)cc2)c(OCC(F)(F)F)nn1 [Example 67, 5-(4-chloro-phenyl)-6-(2,2,2-trifluoro-ethoxy)-pyridazine-3-carboxylic acid (5-trifluoromethyl-isoxazol-3-ylmethyl)-amide] | 6.11 | 25% | 3% | 
16 | O=C(NCc1coc(C2CC2)n1)c1cc(-c2ccc(Cl)cc2)c(OCC(F)(F)F)cn1 [Example 70, 4-(4-chlorophenyl)-N-((2-cyclopropyloxazol-4-yl)methyl)-5-(2,2,2-trifluoroethoxy)picolinamide] | 5.81 | 28% | 14% | 
17 | Cc1cc(-c2cc(C(=O)NCc3csc(C4CC4)n3)cnc2OCC(F)(F)F)ccc1Cl [Example 71, 5-(4-chloro-3-methylphenyl)-N-((2-cyclopropylthiazol-4-yl)methyl)-6-(2,2,2-trifluoroethoxy)nicotinamide] | 5.37 | 2% | -7% | 
18 | Cc1cc(-c2cc(C(=O)NCc3nc(C(F)(F)F)no3)cnc2OCC(F)(F)F)ccc1Cl [Example 72, 5-(4-chloro-3-methylphenyl)-6-(2,2,2-trifluoroethoxy)-N-((3-(trifluoromethyl)-1,2,4-oxadiazol-5-yl)methyl)nicotinamide] | 6.30 | 34% | -1% | 
19 | COc1cc(CNC(=O)c2cc(-c3ccc(Cl)c(C)c3)c(OCC(F)(F)F)cn2)on1 [Example 74, 4-(4-chloro-3-methylphenyl)-N-((3-methoxyisoxazol-5-yl)methyl)-5-(2,2,2-trifluoroethoxy)picolinamide] | 5.89 |  | 22% | 11%
20 | Cc1cc(-c2cc(C(=O)NCc3csc(C4CC4)n3)ncc2OCC(F)(F)F)ccc1Cl [Example 76, 4-(4-chloro-3-methylphenyl)-N-((2-cyclopropylthiazol-4-yl)methyl)-5-(2,2,2-trifluoroethoxy)picolinamide] | 5.79 | 8% | 9% | 
21 | Cc1ccc(-c2cc(C(=O)NCc3nc(C(F)(F)F)no3)cnc2OCC(F)(F)F)cc1 [Example 79, 5-p-tolyl-6-(2,2,2-trifluoroethoxy)-N-((3-(trifluoromethyl)-1,2,4-oxadiazol-5-yl)methyl)nicotinamide] | 5.93 | 42% | 4% | 
